We go through 27 compounds from ChEMBL document CHEMBL3045789, “Tetracyclic spirooxindole blockers of hNaV1.7: activity in vitro and in CFA-induced inflammatory pain model” (Med Chem Res, 2013).

The structures appear in SMILES notation. In brackets after ≈: the same amount, converted by molar mass. Activity calls are given as the source filed them. The rule behind the calls is not given here.

Data set [1] addresses Sodium channel protein type 9 subunit alpha (Homo sapiens, UniProt Q15858). Kind of data set: Inhibition of Homo sapiens (human) NaV1.7 expressed in HEK293 cells assessed as decrease in [14C]guanidinium influx after 2 hr by liquid scintillation counting analysis. Format: cell-based.
The nature of data set [2]: Solubility of the compound in phosphate buffered saline at pH 7.4. Type of data set: physicochemical.
Data set [3] addresses CYP3A4 (Homo sapiens, UniProt P08684). The experiment in a line: Inhibition of Homo sapiens (human) recombinant CYP3A4 at 10 uM by fluorogenic assay. Format: ADME.
For data set [4], the system named is Rattus norvegicus. The experiment in a line: Analgesic activity in CFA-induced Rattus norvegicus (rat) inflammatory pain model assessed as reduction of mechanical allodynia at 40 mg/kg, po after 1 hr by von Frey test. Format: functional, organism-based. More on the design: dose 40 mg/kg.
The test system of data set [5] is Rattus norvegicus. The experiment in a line: Analgesic activity in CFA-induced Rattus norvegicus (rat) inflammatory pain model assessed as reduction of mechanical allodynia at 10 mg/kg, ip after 1 hr by von Frey test. Format: functional, organism-based. More on the design: dose 10 mg/kg.
Data set [6] is described as follows: Metabolic stability in Rattus norvegicus (rat) liver microsomes assessed as compound remaining after 30 min. Type of data set: ADME. The settings on record: read-out: Stability.
Data set [7] in a line: Cmax in Sprague-Dawley Rattus norvegicus (rat) at 10 mg/kg, po. Type of data set: ADME, organism-based. The conditions noted are these: in vivo. Details: dose 10 mg/kg, route oral.
Data set [8] is described as follows: Tmax in Sprague-Dawley Rattus norvegicus (rat) at 10 mg/kg, po. Format: ADME, organism-based. Details: dose 10 mg/kg, route oral. The settings on record: in vivo.
Data set [9] can be described thus: AUClast in Sprague-Dawley Rattus norvegicus (rat) at 1 mg/kg, iv. More on the design: time 0 - last, dose 1 mg/kg, route intravenous. The settings on record: plasma. Type of data set: ADME, organism-based.
Data set [10] is described as follows: Apparent permeability across basolateral to apical side in Homo sapiens (human) Caco2 cells. Type of data set: ADME, cell-based. The settings on record: Caco-2.
Data set [11] deals with hERG (KCNH2) (Homo sapiens, UniProt Q12809). Kind of data set: Inhibition of Homo sapiens (human) ERG expressed in HEK293 cells at 10 uM after 3 hr by rubidium efflux assay. Type of data set: cell-based. The conditions noted are these: HEK293 cells expressing human ERG.
Data set [12] can be described thus: Metabolic stability in Rattus norvegicus (rat) hepatocytes assessed as compound remaining after 2 hr. Type of data set: ADME, cell-based, Hepatocyte. The conditions noted are these: read-out: Stability.
The nature of data set [13]: Volume of distribution at steady state in Sprague-Dawley Rattus norvegicus (rat) at 1 mg/kg, iv. Type of data set: ADME, organism-based. More on the design: dose 1 mg/kg, route intravenous. The settings on record: in vivo, read-out: Vdss.
A short description of data set [14]: Clearance in Sprague-Dawley Rattus norvegicus (rat) at 1 mg/kg, iv. The conditions noted are these: in vivo. More on the design: dose 1 mg/kg, route intravenous. Type of data set: ADME, organism-based.
The nature of data set [15]: Oral bioavailability in Sprague-Dawley Rattus norvegicus (rat) at 10 mg/kg. Type of data set: ADME, organism-based. The settings on record: in vivo.
The nature of data set [16]: Metabolic stability in Canis lupus familiaris (dog) hepatocytes assessed as compound remaining after 2 hr. Format: ADME, cell-based, Hepatocyte. The conditions noted are these: read-out: Stability.
Data set [17] can be described thus: Plasma protein binding in Rattus norvegicus (rat). Type of data set: ADME, cell-free. The conditions noted are these: read-out: PPB (converted).
Data set [18] deals with Rattus norvegicus. Kind of data set: Analgesic activity in CFA-induced Rattus norvegicus (rat) inflammatory pain model assessed as reduction of mechanical allodynia at 10 mg/kg, po after 1 hr by von Frey test relative to vehicle-treated control. Format: functional. More on the design: scale not given: the % may be the effect or the level left.
The nature of data set [19]: Metabolic stability in Homo sapiens (human) hepatocytes assessed as compound remaining after 2 hr. The settings on record: read-out: Stability. Type of data set: ADME, cell-based, Hepatocyte.
Data set [20] deals with Cytochrome P450 3A4 (Homo sapiens, UniProt P08684). Kind of data set: Inhibition of Homo sapiens (human) recombinant CYP3A4 by fluorogenic assay. Format: ADME.
A short description of data set [21]: Cmax in Sprague-Dawley Rattus norvegicus (rat) at 1 mg/kg, iv. Format: ADME, organism-based. Details: dose 1 mg/kg, route intravenous. The settings on record: in vivo.
The nature of data set [22]: Terminal half life in Sprague-Dawley Rattus norvegicus (rat) at 1 mg/kg, iv. Type of data set: ADME, organism-based. Details: dose 1 mg/kg, route intravenous. The settings on record: in vivo, read-out: beta t1/2 (converted).
The nature of data set [23]: AUClast in Sprague-Dawley Rattus norvegicus (rat) at 10 mg/kg, po. Format: ADME, organism-based. Details: time 0 - last, dose 10 mg/kg, route oral. The settings on record: plasma.
Data set [24] can be described thus: Apparent permeability across apical to basolateral side in Homo sapiens (human) Caco2 cells. Type of data set: ADME, cell-based. The conditions noted are these: Caco-2.
Data set [25] is described as follows: Cytotoxicity against Homo sapiens (human) HepG2 cells assessed as cell viability after 16 hr. Type of data set: cell-based. The settings on record: read-out: Activity.

Chain of Sodium channel protein type 9 subunit alpha (Q15858 whole entry): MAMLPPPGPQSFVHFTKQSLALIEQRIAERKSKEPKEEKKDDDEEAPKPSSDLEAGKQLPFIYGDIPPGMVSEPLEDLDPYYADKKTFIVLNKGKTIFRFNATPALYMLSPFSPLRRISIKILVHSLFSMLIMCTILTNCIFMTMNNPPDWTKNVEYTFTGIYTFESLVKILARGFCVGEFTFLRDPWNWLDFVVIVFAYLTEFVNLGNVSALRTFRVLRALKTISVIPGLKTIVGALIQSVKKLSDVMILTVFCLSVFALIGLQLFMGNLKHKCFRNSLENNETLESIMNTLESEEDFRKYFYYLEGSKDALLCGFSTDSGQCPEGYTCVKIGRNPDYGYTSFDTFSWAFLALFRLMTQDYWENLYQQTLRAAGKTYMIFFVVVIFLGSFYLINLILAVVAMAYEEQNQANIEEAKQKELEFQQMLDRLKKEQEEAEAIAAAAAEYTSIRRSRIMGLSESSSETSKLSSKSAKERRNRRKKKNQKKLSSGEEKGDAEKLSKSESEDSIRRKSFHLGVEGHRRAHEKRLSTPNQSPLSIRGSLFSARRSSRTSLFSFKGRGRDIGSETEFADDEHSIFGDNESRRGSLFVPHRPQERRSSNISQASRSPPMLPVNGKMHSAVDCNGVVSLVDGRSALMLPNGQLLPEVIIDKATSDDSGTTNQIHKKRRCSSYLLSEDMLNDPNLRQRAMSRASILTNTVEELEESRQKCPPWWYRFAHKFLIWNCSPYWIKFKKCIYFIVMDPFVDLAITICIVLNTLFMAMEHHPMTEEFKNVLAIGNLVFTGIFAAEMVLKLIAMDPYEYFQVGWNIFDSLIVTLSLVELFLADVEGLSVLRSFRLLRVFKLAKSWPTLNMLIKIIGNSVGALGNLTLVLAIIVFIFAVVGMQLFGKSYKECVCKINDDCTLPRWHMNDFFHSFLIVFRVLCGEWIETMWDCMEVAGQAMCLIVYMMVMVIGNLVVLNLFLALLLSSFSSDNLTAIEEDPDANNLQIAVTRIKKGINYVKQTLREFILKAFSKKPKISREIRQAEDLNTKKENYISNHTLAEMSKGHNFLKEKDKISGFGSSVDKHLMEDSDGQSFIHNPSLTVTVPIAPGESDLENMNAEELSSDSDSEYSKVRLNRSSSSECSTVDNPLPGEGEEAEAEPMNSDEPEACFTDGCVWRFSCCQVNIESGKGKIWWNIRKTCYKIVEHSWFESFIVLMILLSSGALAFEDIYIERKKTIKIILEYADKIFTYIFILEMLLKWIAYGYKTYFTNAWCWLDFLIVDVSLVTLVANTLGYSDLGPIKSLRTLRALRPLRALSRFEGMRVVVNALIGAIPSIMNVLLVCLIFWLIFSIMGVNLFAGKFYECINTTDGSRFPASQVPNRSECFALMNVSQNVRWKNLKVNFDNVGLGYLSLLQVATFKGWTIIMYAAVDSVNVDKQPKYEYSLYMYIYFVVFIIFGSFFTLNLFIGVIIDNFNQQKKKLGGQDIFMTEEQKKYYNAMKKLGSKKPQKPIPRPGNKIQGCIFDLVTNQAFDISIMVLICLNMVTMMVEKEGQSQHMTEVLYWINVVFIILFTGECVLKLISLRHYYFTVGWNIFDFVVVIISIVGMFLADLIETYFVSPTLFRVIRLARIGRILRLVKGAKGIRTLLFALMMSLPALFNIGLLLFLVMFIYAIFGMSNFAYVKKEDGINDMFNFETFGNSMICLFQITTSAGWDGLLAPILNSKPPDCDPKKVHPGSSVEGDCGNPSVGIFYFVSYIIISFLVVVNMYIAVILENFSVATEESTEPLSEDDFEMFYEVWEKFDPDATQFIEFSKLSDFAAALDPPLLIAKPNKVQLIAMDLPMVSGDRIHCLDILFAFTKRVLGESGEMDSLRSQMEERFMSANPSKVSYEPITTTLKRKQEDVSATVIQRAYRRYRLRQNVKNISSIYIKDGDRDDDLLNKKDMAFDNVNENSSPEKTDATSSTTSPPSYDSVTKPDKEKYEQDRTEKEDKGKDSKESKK
Chain of CYP3A4 (P08684 whole entry): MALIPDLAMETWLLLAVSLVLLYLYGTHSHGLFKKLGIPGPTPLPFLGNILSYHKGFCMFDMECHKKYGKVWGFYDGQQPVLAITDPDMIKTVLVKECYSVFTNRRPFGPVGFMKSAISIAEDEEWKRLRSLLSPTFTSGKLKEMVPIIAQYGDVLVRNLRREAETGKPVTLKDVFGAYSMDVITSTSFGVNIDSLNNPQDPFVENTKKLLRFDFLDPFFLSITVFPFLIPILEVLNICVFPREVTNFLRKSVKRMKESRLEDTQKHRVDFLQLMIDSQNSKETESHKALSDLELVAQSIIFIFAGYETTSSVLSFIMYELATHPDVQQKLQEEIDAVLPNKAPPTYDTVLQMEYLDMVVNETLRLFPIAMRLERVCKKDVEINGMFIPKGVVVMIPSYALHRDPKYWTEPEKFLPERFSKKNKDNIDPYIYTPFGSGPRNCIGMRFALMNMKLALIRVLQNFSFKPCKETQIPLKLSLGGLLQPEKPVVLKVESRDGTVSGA
Chain of Cytochrome P450 3A4 (P08684 whole entry): as above
Chain of hERG (KCNH2) (Q12809 whole entry): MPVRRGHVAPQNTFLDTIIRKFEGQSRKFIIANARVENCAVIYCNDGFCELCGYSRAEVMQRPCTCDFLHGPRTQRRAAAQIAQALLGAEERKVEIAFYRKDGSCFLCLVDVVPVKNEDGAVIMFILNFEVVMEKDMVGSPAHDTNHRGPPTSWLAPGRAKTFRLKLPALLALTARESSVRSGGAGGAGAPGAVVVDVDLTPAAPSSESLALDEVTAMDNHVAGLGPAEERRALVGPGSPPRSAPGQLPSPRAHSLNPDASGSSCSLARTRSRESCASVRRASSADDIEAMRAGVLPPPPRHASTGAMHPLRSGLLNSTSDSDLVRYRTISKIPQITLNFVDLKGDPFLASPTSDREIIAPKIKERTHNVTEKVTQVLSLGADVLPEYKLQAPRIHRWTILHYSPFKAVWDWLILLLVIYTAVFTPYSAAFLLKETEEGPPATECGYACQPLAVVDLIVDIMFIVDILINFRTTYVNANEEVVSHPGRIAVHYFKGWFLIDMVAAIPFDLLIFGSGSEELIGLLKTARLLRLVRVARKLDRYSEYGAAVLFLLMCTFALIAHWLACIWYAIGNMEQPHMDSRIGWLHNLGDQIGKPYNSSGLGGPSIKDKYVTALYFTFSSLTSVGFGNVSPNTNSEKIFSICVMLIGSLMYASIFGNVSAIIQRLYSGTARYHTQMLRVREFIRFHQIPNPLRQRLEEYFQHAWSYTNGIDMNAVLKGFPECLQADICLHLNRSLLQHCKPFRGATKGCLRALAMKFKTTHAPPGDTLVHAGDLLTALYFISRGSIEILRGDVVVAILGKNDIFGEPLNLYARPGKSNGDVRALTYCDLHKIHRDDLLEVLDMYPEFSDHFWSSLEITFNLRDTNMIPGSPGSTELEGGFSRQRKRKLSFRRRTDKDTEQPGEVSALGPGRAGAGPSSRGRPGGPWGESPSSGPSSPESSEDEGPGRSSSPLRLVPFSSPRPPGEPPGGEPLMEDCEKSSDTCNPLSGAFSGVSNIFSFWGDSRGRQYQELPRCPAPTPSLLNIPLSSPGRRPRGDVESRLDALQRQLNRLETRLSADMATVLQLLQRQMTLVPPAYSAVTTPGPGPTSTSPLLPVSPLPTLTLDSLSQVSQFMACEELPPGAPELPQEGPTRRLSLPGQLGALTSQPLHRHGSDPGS

`O=C1N(Cc2ccccn2)c2ccccc2C12COc1cc(F)c(F)cc12` (stereo unspecified): in [1], the IC50 was determined as 270 nM. The compound also returned a solubility in data set [2] of 13 µg/mL (≈ 35.7 µM). The inhibition at 10 µM in data set [3] was determined as 30%.
The like results for `COc1ccc2c(n1)C1(CO2)C(=O)Nc2ccccc21` (stereo unspecified) were, in that order, more than 1000 nM, 52 µg/mL (≈ 194 µM) and 27%.
In the case of `COc1cc2c(cc1F)C1(CO2)C(=O)N(Cc2ccc(C(F)(F)F)o2)c2ccccc21` (stereo unspecified), in data set [1], the concentration for half-maximal inhibition (IC50) was found to be 430 nM. Besides, the solubility in [2] was less than 5 µg/mL. In data set [3], the inhibition at 10 µM was found to be 69%.
The like results for `COc1cc2c(cn1)OCC21C(=O)N(CC2CCCCO2)c2ccccc21` (stereo unspecified) were, in that order, 100 nM, 67 µg/mL (≈ 183 µM) and 22%.
Taken in the same sequence, the figures for `COc1ccc2c(n1)C1(CO2)C(=O)N(Cc2ccccn2)c2ccccc21` (stereo unspecified) were 180 nM, less than 5 µg/mL and 42%.
The like results for `COc1ccc2c(n1)C1(CO2)C(=O)N(Cc2ccc(Cl)s2)c2ccccc21` (stereo unspecified) were, in that order, 60 nM, less than 5 µg/mL and 73%.
For the compound `COc1ccc2c(c1)OCC21C(=O)N(C[C@H]2CCCO2)c2ccccc21` (stereo partly specified), the concentration for half-maximal inhibition (IC50) in data set [1] turned out to be 110 nM. In addition, in data set [2], the solubility amounted to 45 µg/mL (≈ 128 µM). The inhibition at 10 µM in data set [3] came out at 18%.
The like results for `COc1cc2c(cc1C)C1(CO2)C(=O)N(Cc2ccccn2)c2ccccc21` (stereo unspecified) were, in that order, 1150 nM, 7 µg/mL (≈ 18.8 µM) and 61%.
With `COc1cc2c(cn1)OCC21C(=O)N(C[C@@H]2CCCO2)c2ccccc21` (stereo partly specified), the IC50 in data set [1] stood at 20 nM. Also, in data set [2], the solubility is 61 µg/mL (≈ 173 µM). For the same compound, the outcome in data set [4] and in data set [5] was inactive. In [3], the inhibition at 10 µM was 22%. Also, in [6], the remaining at 0.5 h was 8%.
For `Cc1cc2c(cc1C)C1(CO2)C(=O)N(Cc2ccccn2)c2ccccc21` (stereo unspecified), the IC50 in [1] was 230 nM. Besides, the concentration in solution in [2] (solubility) was 6 µg/mL (≈ 16.8 µM). Further, the inhibition at 10 µM in data set [3] is 43%.
For the compound `CCCCCN1C(=O)C2(COc3cc4c(cc32)OCO4)c2ccccc21` (stereo unspecified), in data set [3], the inhibition at 10 µM was found to be 97%.
For the compound `CCCCCN1C(=O)C2(COc3cc(F)c(F)cc32)c2ccccc21` (stereo unspecified), the IC50 in [1] was determined as 240 nM. Moreover, in data set [2], the solubility is less than 5 µg/mL. Besides, the inhibition at 10 µM in data set [3] was determined as 50%.
The like results for `COc1cc2c(cn1)OCC21C(=O)N(C[C@H]2CCCO2)c2ccccc21` (stereo partly specified) were, in that order, 50 nM, less than 5 µg/mL and 14%.
As for `COc1cc2c(cc1F)OCC21C(=O)N(Cc2ccccn2)c2ccccc21` (stereo unspecified), the 50% inhibitory concentration (IC50) in data set [1] amounted to 470 nM. Further, the solubility in data set [2] is 36 µg/mL (≈ 95.6 µM). Further, in data set [3], the inhibition at 10 µM was determined as 16%.
Taken in the same sequence, the figures for `COCCOc1ccc2c(c1)OCC21C(=O)N(Cc2ccccn2)c2ccccc21` (stereo unspecified) were 150 nM, 46 µg/mL (≈ 114 µM) and 22%.
Taken in the same sequence, the figures for `COc1ccc2c(c1)OCC21C(=O)N(CC2CCCCO2)c2ccccc21` (stereo unspecified) were 10 nM, 14 µg/mL (≈ 38.3 µM) and 35%.
Consider `COc1ccc2c(n1)C1(CO2)C(=O)N(Cc2ccc3c(c2)OCCO3)c2ccccc21` (stereo unspecified), for which, in data set [1], the 50% inhibitory concentration (IC50) was 30 nM. Also, the concentration in solution in data set [2] (solubility) was 5 µg/mL (≈ 12 µM). Further, the inhibition at 10 µM in [3] is 63%.
As for `COc1ccc2c(n1)C1(CO2)C(=O)N(Cc2ncccc2C(F)(F)F)c2ccccc21` (stereo unspecified), the half-inhibitory concentration (IC50) in [1] is more than 250 nM. This compound returned a solubility in data set [2] of less than 5 µg/mL. For the same compound, in data set [3], the inhibition at 10 µM was found to be 49%.
For `COc1cc2c(cn1)OCC21C(=O)Nc2ccccc21` (stereo unspecified), the half-maximal inhibitory concentration (IC50) in [1] turned out to be 350 nM. The same compound gave a solubility in [2] of 52 µg/mL (≈ 194 µM). Besides, the inhibition at 10 µM in data set [3] is 13%.
The like results for `COc1ccc2c(c1)OCC21C(=O)N(Cc2ccccn2)c2ccccc21` (stereo unspecified) were, in that order, 8 nM, 25 µg/mL (≈ 69.8 µM) and 29%.
Regarding `COc1ccc2c(n1)C1(CO2)C(=O)N(Cc2csc(C(C)C)n2)c2ccccc21` (stereo unspecified), in data set [1], the IC50 amounted to 60 nM. The amount in solution in [2] (solubility) came to 5 µg/mL (≈ 12.3 µM). Also, the inhibition at 10 µM in data set [3] was 70%.
In the case of `COc1cc2c(cc1OC)C1(CO2)C(=O)N(Cc2ccc(Cl)s2)c2ccccc21` (stereo unspecified), in [1], the half-maximal inhibitory concentration (IC50) was found to be 700 nM. The compound further had a solubility in data set [2] of 8 µg/mL (≈ 18.7 µM). Further, the inhibition at 10 µM in [3] came out at 75%.
On to `COc1cc2c(cc1F)C1(CO2)C(=O)N(Cc2ccccn2)c2ccccc21` (stereo unspecified), for which the IC50 in [1] was 190 nM. In data set [2], this compound came in with a solubility of 15 µg/mL (≈ 39.9 µM). Besides, the inhibition at 10 µM in [3] stood at 36%.
In the case of `N#Cc1cc2c(cc1F)OCC21C(=O)N(Cc2ncccc2C(F)(F)F)c2ccccc21` (stereo unspecified), the concentration for half-maximal inhibition (IC50) in data set [1] was more than 1000 nM. Moreover, the solubility in [2] is less than 5 µg/mL. Further, in data set [3], the inhibition at 10 µM came to 10%.
`COc1ccc2c(n1)C1(CO2)C(=O)N(Cc2ccc(C(F)(F)F)o2)c2ccccc21` (stereo unspecified): the figures for the maximum concentration (Cmax) in data set [7] and in data set [21] were 12.7 ng/mL and 884 ng/mL, respectively. The IC50 in [1] is 130 nM; in data set [20], more than 10 µM. Besides, in data set [2], the solubility is less than 5 µg/mL. In addition, the Tmax in [8] turned out to be 4 h. The values for the AUC(0-t) in data set [9] and in data set [23] were 244 ng·h/mL and 77.1 ng·h/mL, respectively. Further, the basolateral-to-apical permeability (Papp B→A) in [10] came to 8.8 ×10⁻⁶ cm/s. The inhibition at 3 h, 10 µM in data set [11] is 7.5%. For the same compound, the remaining at 2 h in data set [12] came out at 18%; in data set [16] it was 49%; in [19] it was 29%. Further, in data set [13], the Vd was 4.1 L/kg. For the same compound, in [14], the clearance was 66.7 mL/min/kg. Moreover, in [15], the bioavailability turned out to be 3.2%. The fraction unbound in [17] was 0.05. Further, the Activity in data set [18] was 59%. The half-life in data set [22] was 114 min. In addition, the Papp A→B in [24] stood at 9.1 ×10⁻⁶ cm/s. Besides, in [25], the viability at 16 h is more than 96%. The inhibition at 10 µM in data set [3] was 26%.
`CCCCCN1C(=O)C2(COc3cc(OC)ccc32)c2ccccc21` (stereo unspecified): the concentration for half-maximal inhibition (IC50) in data set [1] was 60 nM. In addition, in data set [2], the solubility was less than 5 µg/mL. In data set [3], the inhibition at 10 µM came to 64%.
Taken in the same sequence, the figures for `COc1cc2c(cn1)OCC21C(=O)N(Cc2ccc(C(F)(F)F)o2)c2ccccc21` (stereo unspecified) were 4 nM, less than 5 µg/mL and 74%.
